From US20050239889A1, “In vivo release of endogenous anti-microbial mediators by leukotriene B4 (LTB4) administration” (priority 2004, published 2005)

Experiments:
α-Defensins [1] = test: Plasma α-Defensins (ELISA) after intravenous LTB4 administration to human subjects, Phase I study; assay type: in vivo
Method: (§1) Plasma samples were obtained from 19 HIV-uninfected human volunteers taking part in a Phase I clinical study on the safety and tolerability of intravenously (i.v.) administered bolus of LTB4. In brief, 3 individuals received saline (placebo) and 16 (4 subjects/group) were administered LTB4 in doses ranging from 0.05 μg/kg to 50 μg/kg per day for 7 consecutive days. Venous blood was collected twice before injection (-5 and -2 minutes) to establish baseline values. Following the i.v. administration of saline or LTB4, blood samples were drawn at 0.5, 1, 2, 4, 6, and 24 hours post-injection into blood collection tubes, using EDTA as anti-coagulant. Immediately after blood collection, the samples were put on ice until processed. All plasma isolation procedures were carried out at 4° C. Plasma samples were stored at −80° C. until assayed by ELISA for α-Defensins (HyCult Biotechnology bv, The Netherlands) and MIP-β(Amersham/Pharmacia, Baie d'Urfé, Canada).
Healthy volunteers participating in a Phase I clinical study on the safety and tolerability of intravenously administered LTB4, were randomized into 5 groups: placebo (n=3), LTB4 0.05 μg/kg (n=4), LTB4 0.5 μg/kg (n=4), LTB4 5 μg/kg (n=4) and LTB4 50 μg/kg (n=4). LTB4 was administered once daily for 7 consecutive days and plasma samples (0-6 hours post-LTB4 administration) from all 19 volunteers were tested for the presence of α-Defensins using a commercial ELISA kit. The mean ± standard error of α-Defensins releases (ng/ml plasma) for each group are presented in FIG. 1 with statistical analysis performed using the placebos as control group. Healthy individuals received a placebo (3 subjects) or doses of LTB4 ranging form 0.05 μg/kg to 50 μg/kg (n=4 subjects/group). Plasma samples were obtained at various time points before and after LTB4 injections and the α-Defensin levels determined by ELISA. The data shown in FIG. 1 represent the mean ± standard error of α-Defensins (ng/mL plasma) of all subjects within each group. P values were determined by comparing the mean α-Defensin levels of each group that received LTB4 versus the placebo group at the same time points. *p<0.001; **p<0.05. Plasma samples obtained before placebo or LTB4 injections indicate that there were no significant differences in the basal levels of α-Defensins between the groups.

α-Defensins [2] = test: Plasma α-Defensins (ELISA) after subcutaneous LTB4 administration to monkeys; assay type: in vivo, Macaca fascicularis; details: macaques
Method: Two macaques (Macaca fascicularis) were used for the study. For subcutaneous injections, the areas to be injected were first shaved one day before dosing. Volumes of 0.075 mL (monkey IJI) or 0.1 mL (monkey JKN) of LTB4 solution were administered subcutaneously in the arm of the animal to compensate for slight difference between both monkeys. Venous blood samples were collected at various time points with all plasma isolation procedures performed at 4° C. Platelet-free plasma samples were stored at −80° C. until assayed for α-Defensins using a commercial ELISA kit (HyCult Biotechnology bv, The Netherlands). We next studied the change in plasmatic concentration of the antimicrobial peptides α-Defensins in monkeys following subcutaneous (s.c.) administration of LTB4. Monkeys were injected s.c. with 5,5 μg/kg or 50 μg/kg of LTB4 and blood samples were taken at various time points and used for (α-Defensins measurements in the plasma, using a commercial ELISA kit. The results obtained are presented in FIGS. 3A (5,5 μg/kg) and 3B (50 μg/kg). Two macaques (IJI and JKN) were injected subcutaneously with 5,5 μg/kg (A) or 50 μg/kg (B) of LTB4. Blood samples were collected at various time points and α-Defensins levels measured in plasma samples using a commecial ELISA kit. Overall, the data obtained indicate that α-Defensins levels in plasma remain relatively stable up to 15 minutes post-LTB4 administration. α-Defensins levels started to increase by 30 minutes and peaked at two hours post LTB4 administration. […] For monkeys that received 50 μg/kg, (α-Defensins levels remained at their highest up to 4 hours post injection, followed by a gradual decrease. In both sets (5,5 μg/kg and 50 μg/kg), the levels of α-Defensins remained above baseline values up to 6 hours following LTB4 delivery

MIP-1β = test: Plasma MIP-1β (ELISA) after intravenous LTB4 administration to human subjects, Phase I study; assay type: in vivo; details: i.v.
Method: as §1
Considering that soluble anti-HIV factors include β-chemokines and that neutrophils are capable of producing MIP-1β, we measured the levels of this β-chemokine in plasma of individuals that received a placebo or LTB4 (same cohorts as mentioned above). Plasma samples from healthy subjects that received a placebo (n=3) or LTB4 (5 and 50 μg/kg [n=4 subjects/group]) were obtained at various time points before and after LTB4 injections. Data are expressed as mean ± […] of the mean of MIP-1β levels (pg/ml) for all subjects within each group. P values were determined by comparing the mean MIP-1β levels of each group that received LTB4 versus the placebo group at the same time points. *p<0.025. […] Plasma samples from subjects that received the 2 lowest doses of LTB4 were not tested for MIP-1β.

CCCCC/C=C\C[C@@H](O)/C=C/C=C/C=C\[C@@H](O)CCCC(=O)O [LTB4, 5S,12R-dihydroxy-6,8,10,14(Z,E,E,Z)-eicosatetraenoic acid]
release of α-Defensins in plasma, dose dependence (α-Defensins [1]; i.v. bolus once daily for 7 days, 0.05 to 50 μg/kg, versus placebo group): triggered dose-dependent release of α-Defensins
increase in plasmatic α-Defensins (α-Defensins [1]; i.v., 0.5 μg/kg): although not significant, caused a measurable increase in plasmatic α-Defensins
time of maximal effect on plasmatic α-Defensins post-LTB4 administration (α-Defensins [1]; i.v., 0.5 μg/kg): two
time of peak α-Defensin levels (α-Defensins [1]; i.v., 5 μg/kg and 50 μg/kg): 2 h
time to significant increase of α-Defensin release following LTB4 injections (α-Defensins [1]; i.v., 5 μg/kg and 50 μg/kg): 30 min
peak α-Defensin levels over the placebo group (α-Defensins [1]; i.v., 5 μg/kg and 50 μg/kg, at 2 hours, p<0.001): 5-7 fold
time α-Defensin levels remained above the control levels post-LTB4 administration (α-Defensins [1]; i.v., 5 μg/kg and 50 μg/kg, p<0.05): up to 6 hours
α-Defensins levels 24 hours post-LTB4 administration (α-Defensins [1]; i.v., 24 hours): back to the pre-injection levels
α-Defensins release in plasma (α-Defensins [1]; i.v., lowest dose of LTB4 (0.05 μg/kg)): did not significantly enhanced α-Defensins release
time α-Defensins levels remained at their highest post injection (α-Defensins [2]; s.c., 50 μg/kg, followed by a gradual decrease): up to 4 hours
time of peak α-Defensins levels post LTB4 administration (α-Defensins [2]; s.c., 5,5 μg/kg or 50 μg/kg): two
time α-Defensins levels in plasma remain relatively stable post-LTB4 administration (α-Defensins [2]; s.c., 5,5 μg/kg or 50 μg/kg): up to 15 minutes
time α-Defensins levels started to increase (α-Defensins [2]; s.c., 5,5 μg/kg or 50 μg/kg): 30 min
course of α-Defensins levels after the peak (α-Defensins [2]; s.c., 5,5 μg/kg, experiment ended at hour 6): started to drop by the fourth hour and continued to do so up to hour 6
time levels of α-Defensins remained above baseline values following LTB4 delivery (α-Defensins [2]; s.c., both 5,5 μg/kg and 50 μg/kg): up to 6 hours
start of elevation in plasmatic MIP-1β levels post-LTB4 injection (MIP-1β; 5-50 μg/kg): 1 h
time of maximal plasmatic MIP-1β levels post-LTB4 injection (MIP-1β; 5-50 μg/kg): 2 h
MIP-1β plasmatic levels at 6 hours post-LTB4 administration (MIP-1β; 5-50 μg/kg, 6 hours): had returned to original levels
statistical significance of MIP-1β elevation versus placebo (MIP-1β; 5 and 50 μg/kg groups, n=4 per group, p<0.025): statistical significance was observed only for those that received the highest dose of LTB4
